Where a name gives a salt, the structure may show the parent alone.

Assay type in all cases: physicochemical
Data set [1] can be described thus: Aqueous passive and agitated release from ASM981-loaded Nelfilcon membrane. The conditions noted are these: membrane of 1% ASM981 in Nelfilcon. The method, then:
The addition of Pimecrolimus (SDZ ASM981), which is synthesized by Novartis Pharma, in solution form to Nelfilcon macromer increases the liquid content of the macromer. Simple addition of the ASM981 consequently diluted the macromer and photopolymerisation produced wet structurally incoherent product. A membrane composed of 1% ASM981 was prepared by adding 1 g of the ASM981 solution to 5 g of nelfilcon macromer, vortexing for approximately 5 minutes, and removing the lid of the vial to remove excess water. The mass of the ASM981-loaded macromer was allowed to return to its original 5 g. This was conveniently achieved by leaving the mixture overnight on a flatbed shaker under a nitrogen blanket. The mixture was then placed in a membrane mould and polymerised under a static UV lamp. The mixture was successfully polymerised to form a coherent membrane, and the resultant membrane was opaque in appearance.

Data set [2] is described as follows: Drug uptake via absorption into the Dailies matrix from soak solution. The method, then:
Cromolyn sodium was strongly absorbed by the Dailies matrix. The amount absorbed from a 4% concentration (equivalent to an ophthalmic solution) soak solution was on the order of 1 mg. Approximately 100 μg was released passively during a short burst period, leaving some 900 μg for release by trigger mechanism.
Ketotifen fumarate was used at much lower levels in ophthalmic solution (0.025%) than cromolyn sodium, which was reflected in the uptake experiments. Ketotifen fumarate was absorbed from a 0.025% solution into the lens at a level of 35 μg, with a modest amount released during a short burst period, leaving approximately 30 μg retained in the matrix. This is a very significant payload in relation to daily requirements.

Data set [3] is described as follows: Direct loading of drug into the Nelfilcon macromer (loading level). The conditions noted are these: drug loaded directly into Nelfilcon macromer. The method, then: A mixture of Nelfilcon and cromolyn sodium was polymerised to form a membrane, and 1.5 cm diameter discs were cut out and the release profile examined. The release profile of the directly loaded and the absorbed drug described above were compared. Direct loading levels were much lower (approx. 20 μg per lens) than the 1 mg per lens absorbed from a 4% solution.

The nature of data set [4]: Trigger release in vortex eye model (in vitro in-eye release model). The note with it: for triggered release: in eye model (vortex); for trigger release following passive diffusion: drug loaded via absorption into Dailies matrix. The method, then:
The vortex model is the in vitro in-eye release model described in commonly owned copending US Patent Application Publication No. 2006/0251696 A1 (herein incorporated by reference in its entirety). The experiment is carried out as follows. A contact lens is first blotted dry and immediately is carefully placed into 100 microliter of an extraction medium in an tube (e.g., a centrifuge tube, a scintillation vial, or preferably an Eppendorf microtube) and the microtube is agitated for fifteen seconds using, e.g., a Vibrex vortex mixer. At the end of one hour period, the tube is again agitated using, e.g., a Vibrex vortex mixer, for a further fifteen seconds. The extraction medium is removed from the Eppendorf microtube and 100 microliter of a fresh extraction medium is added. Extraction samples are stored at 25° C. between agitation procedures. The concentration of a guest material extracted out of a lens can be determined according to any methods known to a person skilled in the art.

Data set [5] in a line: Passive diffusion release from drug-loaded lens / Nelfilcon membrane discs. The method, then:
Cromolyn sodium was strongly absorbed by the […] matrix. The amount absorbed from a 4% concentration (equivalent to an ophthalmic solution) soak solution was on the order of 1 mg. Approximately 100 μg was released passively during a short burst period, leaving some 900 μg for release by trigger mechanism. […] A mixture of Nelfilcon and cromolyn sodium was polymerised to form a membrane, and 1.5 cm diameter discs were cut out and the release profile examined. The release profile of the directly loaded and the absorbed drug described above were compared. Direct loading levels were much lower (approx. 20 μg per lens) than the 1 mg per lens absorbed from a 4% solution. […] Ketotifen fumarate was used at much lower levels in ophthalmic solution (0.025%) than cromolyn sodium, which was reflected in the uptake experiments. Ketotifen fumarate was absorbed from a 0.025% solution into the lens at a level of 35 μg, with a modest amount released during a short burst period, leaving approximately 30 μg retained in the matrix. This is a very significant payload in relation to daily requirements. […] A mixture of Nelfilcon and ketotifen fumarate was polymerised to form a membrane, and 1.5 cm diameter discs were cut out and the release profile examined. The release profile of the directly loaded and the absorbed drug described above were compared. As with cromolyn sodium, the matrix distribution of the drug loaded directly into the polymer matrix produced differences in release behaviour compared to the absorbed drug.

Data set [6] in a line: Release of Rose Bengal from Nelfilcon lenses in PBS and lysozyme solution.
Data set [7] is described as follows: Release of hyaluronan from Nelfilcon matrix in artificial lacrimal solution. The method, then:
Using the techniques above, a mixture of Nelfilcon and varying amounts of hyaluronan was polymerised to form a membrane. The amount of hyaluronan loaded into the Nelfilcon macromer was 2, 6.5, and 40 mg hyaluronan/g nelfilcon (30% by weight aqueous solution). The hyaluronan used was approximately 50 kDa, 100 kDa, and 1 million Da.
The release of hyaluronan from the membrane was investigated by varying the amount and length of the hyaluronan incorporated into the matrix. Release studies were performed by placing each lens in a solution of 5 mL of artificial lacrimal solution at 35° C.

A short description of data set [8]: Heat stability of Nelfilcon lens with hyaluronan. The note with it: lens in 6.5 mg/mL hyaluronan solution, pH 11, 120° C. for 40 minutes; FIG. 3. The method, then:
Heat stability studies were also performed on the membranes. A lens prepared from 6.5 mg/mL loading of 1 M Da hyaluronan was placed in a tube of 6.5 mg/mL solution of hyaluronan at a pH of 11. The tube was sealed with a total volume of 0.8 mL, and the solution was heated at 120° C. for 40 minutes.

[9] abbreviates: drug loaded directly into Nelfilcon macromer.

`CC[C@@H]1/C=C(\C)C[C@H](C)C[C@H](OC)[C@H]2O[C@@](O)(C(=O)C(=O)N3CCCC[C@H]3C(=O)O[C@H](/C(C)=C/[C@@H]3CC[C@H](Cl)[C@H](OC)C3)[C@H](C)[C@@H](O)CC1=O)[C@H](C)C[C@@H]2OC` [ASM981, Pimecrolimus]: the “aqueous passive and agitated release” value in data set [1] is given as “no release was observed”.
As for `O=C(O)c1cc(=O)c2c(OCC(O)COc3cccc4oc(C(=O)O)cc(=O)c34)cccc2o1` [Cromolyn sodium], in data set [2] (4% concentration soak solution), the “amount absorbed from soak solution” value was around 1 mg. Besides, in data set [3], the direct loading level entry is given as “approx. 20 μg per lens”. Also, in data set [4] (setting [9]), the triggered release result was “very significant triggered release”. The “trigger release following passive diffusion” value in data set [4] (vortex eye model) is “significant release”. The “amount released passively during a short burst period” value in data set [5] (drug absorbed into Dailies matrix from 4% solution) was “Approximately 100 μg”. For the same molecule, in data set [5] (drug absorbed into Dailies matrix from 4% solution, after burst), the “amount left for release by trigger mechanism” value was around 900 µg. The passive release entry in data set [5] (drug loaded directly into Nelfilcon macromer, 1.5 cm discs) was “virtually zero passive release”.
Take `CN1CCC(=C2c3ccccc3CC(=O)c3sccc32)CC1` [Ketotifen fumarate]: the “amount absorbed into the lens” value in data set [2] (0.025% solution) was 35 µg. The “effect of albumin on trigger release” value in data set [4] (drug absorbed into Dailies matrix, albumin) is “little effect”. Further, the “effect of positively charged proteins such as lysozyme on trigger release” value in data set [4] (drug absorbed into Dailies matrix, lysozyme) is on record as “significant enhanced effect”. Moreover, in data set [4] (setting [9]), the triggered release entry is “very effective further release”. Further, the “effect of positively charged tear protein (lysozyme) on trigger release” value in data set [4] (drug loaded directly into Nelfilcon macromer, vortex eye model) was “enhanced”. Moreover, the “trigger release following passive diffusion” value in data set [4] (vortex eye model) is recorded as “enhanced triggered release susceptibility”. Also, in data set [5] (drug absorbed into Dailies matrix from 0.025% solution), the “amount released during a short burst period” value is reported as “modest amount”. In data set [5] (drug absorbed into Dailies matrix from 0.025% solution, after burst), the “amount retained in the matrix” value was “approximately 30 μg”. Also, the “time for passive diffusion to come to equilibrium” value in data set [5] (setting [9]) is recorded as “three”.
Regarding `O=C([O-])c1c(Cl)c(Cl)c(Cl)c(Cl)c1-c1c2cc(I)c(=O)c(I)c-2oc2c(I)c([O-])c(I)cc12.[Na+].[Na+]` [Rose Bengal], the “stability of loaded lens in saline solutions” value in data set [6] (Nelfilcon lens loaded with Rose Bengal) was “stable in saline solutions for extended periods of time”. Also, the “release in PBS solution with no lysozyme” value in data set [6] (Nelfilcon lens, approximately minute 150, FIG. 4) is “little to no Rose Bengal was released”. Also, the “release in a solution of lysozyme” value in data set [6] (Nelfilcon lens, from minute zero, FIG. 4) is reported as “released steadily”.
Regarding hyaluronan, the “effect of increasing the amount of hyaluronan on release” value in data set [7] (2, 6.5, 40 mg hyaluronan/g nelfilcon, FIG. 2) is recorded as “significantly affects the release”.
Take hyaluronan [1 M Da hyaluronan]: the “release pattern (release rate)” value in data set [7] (loading 6.5 mg HA/g nelfilcon, 5 mL artificial lacrimal solution, 35° C., FIG. 1) is reported as “relatively constant release rate from 2 to 48 hours”. Further, in data set [8], the “heat stability: release over time after heating” value is given as “release curve is similar to that of the release of hyaluronan from the matrix that is not heated”.

(Values after patent publication US20080124376A1, “OCULAR DEVICES AND METHODS OF MAKING AND USING THEREOF” (NOVARTIS AG, priority 2006, published 2008).)
